Counter-ions that a name gives are not always drawn. Like-named read-outs stand apart in the source and are kept apart here.
Columns and labels:
[1] = test system: Acinetobacter baumannii ATCC17961; test: Antimicrobial susceptibility testing: 90% growth inhibitory concentration (IC90) determination, Iso-Sensitest broth; type: cell-based; conditions: Acinetobacter baumannii, ATCC17961, 16 h, read-out: ATCC17961 IC90
Procedure: Antimicrobial Susceptibility Testing:
90% Growth Inhibitory Concentration (IC90) Determination
The in vitro antimicrobial activity of the compounds was determined according to the following procedure:
The assay used a 10-points Iso-Sensitest broth medium to measure quantitatively the in vitro activity of the compounds against Acinetobacter baumannii ATCC17978 and Acinetobacter baumannii ATCC17961.
Stock compounds in DMSO were serially twofold diluted (e.g. range from 50 to 0.097 μM final concentration) in 384 wells microtiter plates and inoculated with 49 μl the bacterial suspension in Iso-Sensitest medium to have a final cell concentration of 5×10^(5) CFU/ml in a final volume/well of 50 ul/well. Microtiter plates were incubated at 35±2° C.
Bacterial cell growth was determined with the measurement of optical density at λ=600 nm each 20 minutes over a time course of 16 h. Growth inhibition was calculated during the logarithmic growth of the bacterial cells with determination of the concentration inhibiting 50% (IC50) and 90% (IC90) of the growth.
Table 1 provides the 90% growth inhibitory concentrations (IC90) in micromoles per liter of the compounds of present invention obtained against the strain Acinetobacter baumannii ATCC17978 and Acinetobacter baumannii ATCC17961.

[2] = test system: Acinetobacter baumannii ATCC17978; test: as above; type: cell-based
How it was run: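 A. baumannii ATCC17978 grown in Iso-Sensitest broth across 10 compound concentrations at 35±2 °C.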

[3] = 90% growth inhibitory concentration, Acinetobacter baumannii ATCC17961, Iso-Sensitest broth, OD 600 nm over 16 h
[4] = 90% growth inhibitory concentration, Acinetobacter baumannii ATCC17978, Iso-Sensitest broth, OD 600 nm over 16 h, read-out: ATCC17978 IC90
[5] = Acinetobacter baumannii, ATCC17978, 16 h, read-out: ATCC17978 IC90, 90% growth inhibitory concentration, Acinetobacter baumannii ATCC17978, Iso-Sensitest broth, OD 600 nm over 16 h

Row | Structure (SMILES) | IC90 [1, 3] | IC90 [2, 4] | also measured
1 | Cc1cc(Nc2nccn3c(-c4ccc(OCC#N)c(F)c4F)cnc23)ccc1C(=O)N1CCN(C(=O)[C@@H]2CCNC[C@@H]2O)CC1 [Example 188, 2-[2,3-difluoro-4-[8-[4-[4-[(3R,4R)-3-hydroxypiperidine-4-carbonyl]piperazine-1-carbonyl]-3-methyl-anilino]imidazo[1,2-a]pyrazin-3-yl]phenoxy] acetonitrile formate] | 51 nM |  | 
2 | COc1ccc(-c2cnc3c(Nc4ccc(C(=O)N5CCC(CN)CC5)c(C)c4)nccn23)cc1 [Example 19, (4-(aminomethyl)piperidin-1-yl)(4-((3-(4-methoxyphenyl)imidazo[1,2-a]pyrazin-8-yl)amino)-2-methylphenyl)methanone hydrochloride] | 82 nM |  | 
3 | Cc1cc(Nc2nccn3c(-c4ccc(OCC#N)c(F)c4Cl)cnc23)ccc1C(=O)N1CCN(C(=O)N[C@@H](C)CN)CC1 [Example 162, N-[(1S)-2-amino-1-methyl-ethyl]-4-[4-[[3-[2-chloro-4-(cyanomethoxy)-3-fluoro-phenyl]imidazo[1,2-a]pyrazin-8-yl]amino]-2-methyl-benzoyl]piperazine-1-carboxamide formate] | 46 nM |  | 
4 | COc1ccc(-c2cnc3c(Nc4ccc(C(=O)N5CCN(C(=O)[C@@H]6NCC[C@@H]6O)CC5)c(C)c4)nccn23)c(F)c1F [Example 79, [4-[[3-(2,3-difluoro-4-methoxyphenyl)imidazo[1,2-a]pyrazin-8-yl]amino]-2-methylphenyl]-[4-[(2R,3S)-3-hydroxypyrrolidine-2-carbonyl]piperazin-1-yl]methanone;hydrochloride] | 167 nM |  | 
5 | COc1ccc(-c2cnc3c(Nc4ccc(C(=O)N5CCN(C(=O)N6CCN[C@@H]([C@@H](C)O)C6)CC5)c(C)c4)nccn23)c(F)c1F [Example 289, [4-[[3-(2,3-difluoro-4-methoxyphenyl)imidazo[1,2-a]pyrazin-8-yl]amino]-2-methylphenyl]-[4-[(3R)-3-[(1R)-1-hydroxyethyl]piperazine-1-carbonyl]piperazin-1-yl]methanone; hydrochloride] |  |  | IC90 [1]: 89 nM
6 | Cc1cc(Nc2nccn3c(-c4ccc(OC(C)(C)C#N)c(F)c4F)cnc23)ccc1C(=O)N1CCC(CN)CC1 [Example 105, 2-[4-[8-[4-[4-(aminomethyl)piperidine-1-carbonyl]-3-methyl-anilino]imidazo[1,2-a]pyrazin-3-yl]-2,3-difluoro-phenoxy]-2-methyl-propanenitrile; formic acid] |  | 3600 nM | 
7 | Cc1cc(Nc2nccn3c(-c4ccc(OC(F)F)cc4)cnc23)ccc1C(=O)N1CCN(C(=O)[C@H](N)C(C)C)CC1 [Example 258, hydrochloride] |  |  | IC90 [2, 5]: 890 nM
8 | COc1ccc(-c2cnc3c(Nc4ccc(C(=O)N5CCC(C(=O)NCC(O)CN)CC5)c(C)c4)nccn23)c(F)c1F (stereo not drawn) [Example 291, N-(3-amino-2-hydroxypropyl)-1-[4-[[3-(2,3-difluoro-4-methoxyphenyl)imidazo[1,2-a]pyrazin-8-yl]amino]-2-methylbenzoyl]piperidine-4-carboxamide; hydrochloride] |  |  | IC90 [2, 5]: 110 nM
9 | Cc1cc(Nc2nccn3c(-c4ccc(OC(F)F)cc4)cnc23)ccc1C(=O)N1CCN(C(=O)NC[C@@H](C)N)CC1 [Example 150, N-[(2R)-2-aminopropyl]-4-[4-[[3-[4-(difluoromethoxy)phenyl]imidazo[1,2-a]pyrazin-8-yl]amino]-2-methyl-benzoyl]piperazine-1-carboxamide hydrochloride] |  | 140 nM | 
10 | Cc1cc(Nc2nccn3c(-c4ccc(OCc5ccccn5)c(F)c4F)cnc23)ccc1C(=O)N1CCC(CN)CC1 [Example 125, [4-(aminomethyl)-1-piperidyl]-[4-[[3-[2,3-difluoro-4-(2-pyridylmethoxy)phenyl]imidazo[1,2-a]pyrazin-8-yl]amino]-2-methyl-phenyl]methanone; formic acid] |  | 1700 nM | 
11 | COc1ccc(-c2cnc3c(Nc4ccc(C(=O)N5CCN(C(=O)C6(F)CCNCC6)CC5)c(C)c4)nccn23)c(F)c1F [Example 477, [4-[[3-(2,3-difluoro-4-methoxyphenyl)imidazo[1,2-a]pyrazin-8-yl]amino]-2-methylphenyl]-[4-(4-fluoropiperidine-4-carbonyl)piperazin-1-yl]methanone; hydrochloride] |  |  | IC90 [2, 5]: 120 nM
12 | COc1ccc(-c2cnc3c(Nc4ccc(C(=O)N5CCN(C(=O)[C@@H]6CCNC[C@@H]6O)CC5)c(C)c4)nccn23)c(Cl)c1F (relative stereo) [Example 218, [4-[[3-(2-chloro-3-fluoro-4-methoxy-phenyl)imidazo[1,2-a]pyrazin-8-yl]amino]-2-methyl-phenyl]-[4-[(3R,4R)-3-hydroxypiperidine-4-carbonyl]piperazin-1-yl]methanone] |  | 220 nM | 
13 | Cc1cc(Nc2nccn3c(-c4ccc(O[C@H](C)C#N)c(F)c4F)cnc23)ccc1C(=O)N1CCN(C(=O)[C@@H]2C[C@@H](O)CN2)CC1 [Example 559, (2R)-2-[2,3-difluoro-4-[8-[4-[4-[(2S,4R)-4-hydroxypyrrolidine-2-carbonyl]piperazine-1-carbonyl]-3-methyl-anilino]imidazo[1,2-a]pyrazin-3-yl]phenoxy]propanenitrile formate] |  |  | IC90 [2, 5]: 699 nM
14 | Cc1cc(Nc2nccn3c(-c4ccc(OC(F)F)cc4)cnc23)ccc1C(=O)N1CCC(C(=O)N[C@@H]2[C@@H](O)[C@H](O)[C@@H](CO)O[C@@H]2O)CC1 [Example 350, 1-[4-[[3-[4-(difluoromethoxy)phenyl]imi-dazo[1,2-a]pyrazin-8-yl]amino]-2-methylbenzoyl]-N-[(2S,3R,4R,5S,6R)-2,4,5-trihydroxy-6-(hydroxymethyl)oxan-3-yl]piperidine-4-carboxamide] |  |  | IC90 [2, 5]: 710 nM

More lines, main results first:

Row | IC90 [1, 3] | IC90 [2, 4] | Structure (SMILES) | also measured
15 | 236 nM |  | COc1ccc(-c2cnc3c(Nc4ccc(C(=O)N5CCN(C(=O)[C@@H]6C[C@@H](O)CN6)CC5)c(C)c4F)nccn23)c(F)c1F [Example 576, (4-(4-((3-(2,3-difluoro-4-methoxyphenyl)imidazo[1,2-a]pyrazin-8-yl)amino)-3-fluoro-2-methylbenzoyl)piperazin-1-yl)((2S,4R)-4-hydroxypyrrolidin-2-yl)methanone dihydrochloride] | 
16 | 258 nM |  | COc1ccc(-c2cnc3c(Nc4ccc(C(=O)N5CCN(S(=O)(=O)[C@@H]6CCNC6)CC5)c(C)c4)nccn23)c(F)c1F [Example 579, (R)-(4-((3-(2,3-difluoro-4-methoxyphenyl)imidazo[1,2-a]pyrazin-8-yl)amino)-2-methylphenyl)(4-(pyrrolidin-3-ylsulfonyl)piperazin-1-yl)methanone] | 
17 | 137 nM |  | CC[C@]1(O)CN[C@H](C(=O)N2CCN(C(=O)c3ccc(Nc4nccn5c(-c6ccc(OC)c(F)c6)cnc45)cc3C)CC2)C1 [Example 464, [4-[(2S,4R)-4-ethyl-4-hydroxypyrrolidine-2-carbonyl]piperazin-1-yl]-[4-[[3-(3-fluoro-4-methoxyphenyl)imidazo[1,2-a]pyrazin-8-yl]amino]-2-methylphenyl]methanone; for-mic acid] | 
18 | 58 nM |  | COc1ccc(-c2cnc3c(Nc4ccc(C(=O)N5CCN(C(=O)[C@@H]6C[C@H](O)CN6)CC5)c(C)c4)nccn23)c(F)c1F [Example 227, [4-[[3-(2,3-difluoro-4-methoxy-phenyl)imidazo[1,2-a]pyrazin-8-yl]amino]-2-methyl-phenyl]-[4-[(2S,4S)-4-hydroxypyrrolidine-2-carbonyl]piperazin-1-yl]methanone] | 
19 |  | 370 nM | COc1ccc(-c2cnc3c(Nc4ccc(C(=O)N5CCN(C(=O)[C@H]6CCN6)CC5)c(C)c4)nccn23)cc1F [Example 522, [4-[(2R)-azetidine-2-carbonyl]piperazin-1-yl]-[4-[[3-(3-fluoro-4-methoxyphenyl)imidazo[1,2-a]pyrazin-8-yl]amino]-2-methylphenyl]methanone; hy-drochloride] | 
20 |  | 950 nM | COc1ccc(-c2cnc3c(Nc4ccc(C(=O)N5CC[C@@H](C(=O)N6CCNCC6)[C@H](O)C5)c(C)c4)nccn23)cc1F (racemic) [Example 440, [4-[[3-(3-fluoro-4-methoxyphenyl)imidazo[1,2-a]pyrazin-8-yl]amino]-2-methylphenyl]-[rac-(3R,4S)-3-hydroxy-4-(piperazine-1-carbonyl)piperidin-1-yl]methanone] | 
21 |  | 63 nM | Cc1cc(Nc2nccn3c(-c4ccc(OCC#N)c(F)c4F)cnc23)ccc1C(=O)N1CCN(C(=O)[C@@H]2C[C@](C)(O)CN2)CC1 [Example 230, 2-[2,3-difluoro-4-[8-[4-[4-[(2S,4S)-4-hydroxy-4-methyl-pyrrolidine-2-carbonyl]piperazine-1-carbonyl]-3-methyl-anilino]imidazo[1,2-a]pyrazin-3-yl]phenoxy] acetonitrile formate] | 

— patent US20230011869A1 (Hoffmann-La Roche Inc., priority 2018, published 2023)
